Experimental data from patent publication US8592464B2, “Nitric oxide furoxan derivative compounds endowed with antitumoral activity” (Humanitas Mirasole S.p.A., priority 2009, dated 2013).

What was measured:
[1] = system: cytolytic activity of CD8+ T cells against allogenic (MBL-2) target cells; experiment: Chromium release assay (in vitro cytotoxicity), B6+C26GM culture: immunosuppressed splenocytes from tumor-bearing mice; format: cell-based; settings: strong immunosuppressive conditions, 5-h 51Cr-release
[2] = system: cytolytic activity of CD8+ T cells against allogenic (MBL-2) target cells; experiment: Chromium release assay (in vitro cytotoxicity), B6+Balb+3% CD11b+ mixed leucocytes culture; format: cell-based, mice; settings: 5-h 51Cr-release
coloncarcinoma26 = experiment: Immunohistochemistry of tumors of tumor-bearing mice after oral AT38; format: in vivo, BALB/c mice; settings: 10, 30 and 100 mg/kg/day orally for nine days; compared to untreated controls

## NC(=O)c1c(COC(=O)c2ccc([N+](=O)[O-])cc2)no[n+]1[O-] (hydrate or solvate)
other
  melting point: 172 to 173 °C

## NC(=O)c1c(COC(=O)c2ccc(Cl)cc2)no[n+]1[O-]
other
  melting point: 171 to 172 °C

## CC(=O)OCc1no[n+]([O-])c1C#N [AT25]
[1]
  Range of concentration to rescue cytolytic activity: INEFFECTIVE

## NC(=O)c1c(COC(=O)c2cccc(O)c2)no[n+]1[O-] [AT47]
[1]
  Range of concentration to rescue cytolytic activity: 50 µM

## N#Cc1ccc(C(=O)OCc2no[n+]([O-])c2C(N)=O)cc1
other
  melting point: 190 to 191 °C

## NC(=O)c1c(COC(=O)c2cccnc2)no[n+]1[O-] [AT112]
[1]
  Range of concentration to rescue cytolytic activity: 200 µM

## NC(=O)c1c(COC(=O)/C=C/c2ccccc2O)no[n+]1[O-] [AT113]
[1]
  Range of concentration to rescue cytolytic activity: 100 µM

## CC(=O)Oc1ccccc1C(=O)OCc1no[n+]([O-])c1C(N)=O [AT27]
[1]
  Range of concentration to rescue cytolytic activity: 25 µM

## NC(=O)c1c(COC(=O)c2ccccc2O)no[n+]1[O-] (hydrate or solvate)
other
  melting point: 176 to 177 °C

## NC(=O)c1c(COC(=O)c2ccc(F)cc2)no[n+]1[O-] (hydrate or solvate)
other
  melting point: 163 to 164 °C

## CC(=O)OCc1no[n+]([O-])c1C(N)=O [AT24]
[1]
  Range of concentration to rescue cytolytic activity: INEFFECTIVE
[2]
  Range of concentration to rescue cytolytic activity: INEFFECTIVE

## NC(=O)c1c(COC(=O)c2ccccc2O)no[n+]1[O-] [AT38]
[1]
  Range of concentration to rescue cytolytic activity: 25 µM
coloncarcinoma26
  CD3+ T tumor infiltrating lymphocytes: enhancement
  nitrotyrosine staining: strong reduction

## NC(=O)c1c(COC(=O)c2ccc(O)cc2)no[n+]1[O-] (hydrate or solvate)
other
  melting point: 241 to 242 °C

## COc1ccc(C(=O)OCc2no[n+]([O-])c2C(N)=O)cc1 (hydrate or solvate)
other
  melting point: 175 to 176 °C

## NC(=O)c1c(COc2ccc(C(=O)O)c(O)c2)no[n+]1[O-] [AT43]
[1]
  Range of concentration to rescue cytolytic activity: INEFFECTIVE

## NC(=O)c1c(COC(=O)c2ccc(O)cc2)no[n+]1[O-] [AT45]
[1]
  Range of concentration to rescue cytolytic activity: 100 µM
[2]
  Range of concentration to rescue cytolytic activity: 72 µM

## NC(=O)c1c(COC(=O)c2ccc(N)cc2)no[n+]1[O-] (hydrate or solvate)
other
  melting point: 206 to 208 °C

## NC(=O)c1c(COC(=O)/C=C/c2ccccc2)no[n+]1[O-] [AT110]
[1]
  Range of concentration to rescue cytolytic activity: 100 µM

## NC(=O)c1c(COC(=O)c2cccc(O)c2)no[n+]1[O-] (hydrate or solvate)
other
  melting point: 203 to 204 °C

## NC(=O)c1c(S(=O)(=O)c2ccccc2)no[n+]1[O-] [AT94]
[1]
  Range of concentration to rescue cytolytic activity: INEFFECTIVE

## Cc1ccc(C(=O)OCc2no[n+]([O-])c2C(N)=O)cc1 (hydrate or solvate)
other
  melting point: 149 to 150 °C

## NC(=O)c1c(COC(=O)c2ccccc2)no[n+]1[O-] (hydrate or solvate)
other
  melting point: 163 to 165 °C

## NC(=O)c1c(COC(=O)c2ccccc2)no[n+]1[O-] [AT44]
[1]
  Range of concentration to rescue cytolytic activity: INEFFECTIVE
[2]
  Range of concentration to rescue cytolytic activity: 76 µM
